{"source": "patent US4677110A", "about": "“N-benzoyl-N'-pyrimidinyloxyphenyl urea compounds, and antitumorous compositions containing them” (Ishihara Sangyo Kaisha Ltd., priority 1984, dated 1987)", "key": {"[1]": {"system": "p-388 leukemia cells", "test": "Test Example 2: antitumour activity, intraperitoneal-oral, p-388 leukemia in BDF1 mice", "assay_type": "in vivo", "settings": "one day and four days after i.p. inoculation, 30 days observation", "excerpt": "(intraperitoneal-oral) To BDF1 mice, p-388 leukemia cells were intraperitoneally inoculated in an amount of 1×10^6 cells/mouse. A test drug was orally administered twice i.e. one day and four days after the inoculation. […] The test drugs and comparative drugs were formulated in accordance with Formulation Example 4 given hereinafter. | Notes: MST^1 is as defined above."}, "[2]": {"system": "ddY mice", "test": "Acute toxicity, oral administration", "assay_type": "in vivo", "settings": "12.5 mg/kg oral, ddY mice (10 animals), Formulation Example 4", "description": "(§1) To ddY mice (10 animals), a drug containing the Compound No. 1 or No. 2 of the present invention formulated in accordance with Formulation Example 4 was orally administered in an amount of the compound of 12.5 mg/kg, whereupon no mice died."}, "[3]": {"test": "Acute toxicity, oral administration", "assay_type": "in vivo", "settings": "mouse, in vivo; oral, ddY mice, Formulation Example 4", "description": "as §1"}, "[4]": {"system": "p-388 leukemia cells", "test": "Test Example 1: antitumour activity, intraperitoneal-intraperitoneal, p-388 leukemia in BDF1 mice", "assay_type": "in vivo", "settings": "i.p., one day and four days after i.p. inoculation, 30 days observation", "description": "(Intraperitoneal-intraperitoneal) To BDF1 mice, p-388 leukemia cells were intraperitoneally inoculated in an amount of 1×10^6 cells/mouse. A test drug was intraperitoneally administered twice, i.e. one day and four days after the inoculation. […] The ratio (%) of median survival time of test and control animals was obtained with the number of survival days of mice of the control group to which a physiological saline was administered, being evaluated as 100. The comparative drugs were dispersions obtained by adding small amounts of surfactants (e.g. Tween-80) to the comparative compounds. The drugs of the present invention were those prepared in accordance with Formulation Example 4 given hereinafter. | Note: MST^1 Ratio of median survival time of test and control animals"}, "[5]": {"test": "Acute toxicity, intraperitoneal administration", "settings": "mouse, in vivo, ip, ddY mice, suspension with Tween-80", "description": "as §1\nOn the other hand, a similar test was conducted by intraperitoneally administering a suspension obtained by adding a small amount of a surfactant (Tween-80) to the Compound No. 3 of the present invention, to the same mice, whereby the LD50 values were from 50 to 100 mg/kg."}}}
{"smiles": "O=C(NC(=O)c1ccccc1[N+](=O)[O-])Nc1ccc(Oc2ncc(Br)cn2)c(C(F)(F)F)c1", "note": "[Compound No. 1, N-(N2-nitrobenzoyl)-N'-[4-(5-bromo-2-pyrimidinyloxy)-3-trifluoromethylphenyl]urea]", "values": [{"measurement": "T/C (%) of MST (ratio of median survival time of test and control animals)", "setting": "[1]; 6.25 mg/kg/day", "result": 186, "unit": "%"}, {"measurement": "mortality", "setting": "[2]", "result": "no mice died"}, {"measurement": "LD50", "setting": "[3]", "result": "≥ 12.5", "unit": "mg/kg"}, {"measurement": "T/C (%) of MST (ratio of median survival time of test and control animals)", "setting": "[4]; 3.125 mg/kg/day", "result": 153, "unit": "%"}]}
{"smiles": "O=C(NC(=O)c1ccccc1Cl)Nc1ccc(Oc2ncc(I)cn2)c(Cl)c1", "note": "[Comparative Compound No. 3, N-(2-chlorobenzoyl)-N'-[3-chloro-4-(5-iodo-2-pyrimidinyloxy)phenyl]urea]", "values": [{"measurement": "T/C (%) of MST (ratio of median survival time of test and control animals)", "setting": "[4]; 100 mg/kg/day", "result": 236.8, "unit": "%"}]}
{"smiles": "O=C(NC(=O)c1ccccc1Br)Nc1ccc(Oc2ncc(I)cn2)c(Cl)c1", "note": "[Comparative Compound No. 4, N-(2-bromobenzoyl)-N'-[3-chloro-4-(5-iodo-2-pyrimidinyloxy)phenyl]urea]", "values": [{"measurement": "T/C (%) of MST (ratio of median survival time of test and control animals)", "setting": "[4]; 100 mg/kg/day", "result": 165, "unit": "%"}]}
{"smiles": "O=C(NC(=O)c1ccccc1Cl)Nc1ccc(Oc2ncc(Cl)cn2)c(Cl)c1", "note": "[Comparative Compound No. 2, N-(2-chlorobenzoyl)-N'-[3-chloro-4-(5-chloro-2-pyrimidinyloxy)phenyl]urea]", "values": [{"measurement": "T/C (%) of MST (ratio of median survival time of test and control animals)", "setting": "[4]; 200 mg/kg/day", "result": 183.9, "unit": "%"}]}
{"smiles": "O=C(NC(=O)c1ccccc1[N+](=O)[O-])Nc1ccc(Oc2ncc(Cl)cn2)c(C(F)(F)F)c1", "note": "[Compound No. 2, N-(2-nitrobenzoyl)-N'-[4-(5-chloro2-pyrimidinyloxy)-3-trifluoromethylphenyl]urea]", "values": [{"measurement": "T/C (%) of MST (ratio of median survival time of test and control animals)", "setting": "[1]; 6.25 mg/kg/day", "result": 167, "unit": "%"}, {"measurement": "mortality", "setting": "[2]", "result": "no mice died"}, {"measurement": "LD50", "setting": "[3]", "result": "≥ 12.5", "unit": "mg/kg"}, {"measurement": "T/C (%) of MST (ratio of median survival time of test and control animals)", "setting": "[4]; 3.125 mg/kg/day", "result": 160, "unit": "%"}]}
{"smiles": "O=C(NC(=O)c1ccccc1[N+](=O)[O-])Nc1ccc(Oc2ncc(I)cn2)c(C(F)(F)F)c1", "note": "[Compound No. 3, N-(2-nitrobenzoyl)-N'-[4-(5-iodo-2-pyrimidinyloxy)-3-trifluoromethylphenyl]urea]", "values": [{"measurement": "LD50", "setting": "[5]", "result": "50 to 100", "unit": "mg/kg"}]}
{"smiles": "O=C(NC(=O)c1ccccc1[N+](=O)[O-])Nc1ccc(Oc2ncc(I)cn2)c(Cl)c1", "note": "[Comparative Compound No. 1, N-(2 nitrobenzoyl)-N'-[3-chloro-4-(5-iodo-2-pyrimidinyloxy)phenyl]urea]", "values": [{"measurement": "T/C (%) of MST (ratio of median survival time of test and control animals)", "setting": "[1]; 400 mg/kg/day", "result": 116, "unit": "%"}, {"measurement": "T/C (%) of MST (ratio of median survival time of test and control animals)", "setting": "[1]; 800 mg/kg/day", "result": 143, "unit": "%"}, {"measurement": "T/C (%) of MST (ratio of median survival time of test and control animals)", "setting": "[1]; 1600 mg/kg/day", "result": 186, "unit": "%"}, {"measurement": "T/C (%) of MST (ratio of median survival time of test and control animals)", "setting": "[4]; 12.5 mg/kg/day", "result": 171, "unit": "%"}, {"measurement": "T/C (%) of MST (ratio of median survival time of test and control animals)", "setting": "[4]; 25 mg/kg/day", "result": 230, "unit": "%"}]}
